From patent US20240117385A1, “ENZYMES OF LUCIFERIN BIOSYNTHESIS AND USE THEREOF” (LIGHT BIO, INC., priority 2018, published 2024)

How the values were obtained:
[1] = system: recombinant hispidin hydroxylase from Neonothopanus nambi; assay: HPLC analysis of hydroxylation by recombinant hispidin hydroxylase; type: biochemical; settings: 0.2 μM substrate, 1 mM NADPH, 30 minutes
Method: The isolated recombinant hispidin hydroxylase from Neonothopanus nambi, obtained according to Example 4, was added to reaction mixtures comprising 1 mM of NADPH and 0.2 μM of hispidin, (E)-4-hydroxy-6-styryl-2H-pyran-2-one or (E)-4-hydroxy-6-(4-hydroxystyryl)-2H-pyran-2-one in 100 μl of the buffer (0.2 M of Na-phosphate buffer, 0.5 M of Na2SO4, 0.1% dodecylmaltoside (DDM) pH 8.0). In 30 minutes, the reaction mixture was analyzed by HPLC using synthetic luciferins as standards.

[2] = system: Danio rerio larvae; assay: Bioluminescence of transgenic Danio rerio larvae after hispidin injection; type: in vivo; settings: hispidin solution intravenously injected
Text: Transgenic fish Danio redo, comprising gene of Neonothopanus nambi hispidin hydroxylase were created according to the technique described in [Hisano et al., Sci Rep., 2015, 5:8841]. The technique includes expression of guide RNA and Cas9 nuclease for making a breakpoint in the region homologous to the guide RNA sequence. For the purpose of development of transgenic animals there were ordered synthetic DNA fragments comprising guide RNA sequences from pX330 plasmid, Addgene #42230 and mRNA of Cas9 nuclease under control of bacteriophage polymerase T7 promoter. The obtained fragments were used for transcription in vitro by means of reagents from MAXIscript T7 kit (Life Technologies, USA), and synthesized RNA was purified by means of DNA isolation kit (Evrogen, Russia).
Coding sequence of Neonothopanus nambi hispidin hydroxylase floxed by 50-nucleotide sequences from krtt1c19e Danio rerio gene, described in [Hisano et al., Sci Rep., 2015, 5:8841], was obtained synthetically and cloned into pEGFP/C1 plasmid base comprising pUC origin and kanamycin resistance cassette.
Hispidin solution was intravenously injected into Danio rerio larvae for recording bioluminescent signal according to the technique described in [Cosentino et al., J Vis Exp. 2010; (42): 2079]. Bioluminescence was recorded by means of IVIS Spectrum In Vivo Imaging System (Perkin Elmer). […]

O=c1cc(O)cc(/C=C/c2ccc(O)c(O)c2)o1 [hispidin, (E)-6-(3,4-dihydroxystyryl)-4-hydroxy-2H-pyran-2-one]
HPLC detection of hydroxylated product [1]: occurrence of peaks corresponding to 3d position hydroxylated derivatives
bioluminescence intensity exceeding the signal from wild-type fish [2]: minimum by two orders of magnitude
